Assay: Release of AL-6598 from silicone dies of three sizes in PBS at 37° C.
Assay type: physicochemical
Settings: silicone die containing 10% AL-6598, 10x10x1 mm, 10x5x1 mm and 5x5x1 mm, FIG. 8
Method: To study the effect of surface area on the release of prostaglandin from a silicone matrix, prostaglandin release from silicone dies of three different sizes was measured. The largest silicone die measured 10 mm×10 mm×1 mm. A ½ size device (10 mm×5 mm×1 mm) and a ¼ size device (5 mm×5 mm×1 mm) were also used in this study. Each silicone die contained 10% AL-6598, which is a DP class prostaglandin analogue. The silicone die were placed in phosphate buffered saline (PBS) at 37° C. and the amount of AL-6598 released was measured.

SMILES: CC(C)OC(=O)COC/C=C\C[C@@H]1[C@@H](CC[C@@H](O)C2CCCCC2)[C@H](O)C[C@H]1Cl [AL-6598]
- release of AL-6598 from silicone die (effect of surface area): dependent on the size of the silicone die with the larger surface area resulting in the more rapid drug release

Reference: patent US8753666B2, “Punctal plugs and methods of delivering therapeutic agents” (Alcon Research, Ltd., priority 2007, dated 2014)
